Data on one compound can be found in patent publication US20080076788A1, “SOLID FORMS OF (3'-CHLOROBIPHENYL-4-YL)(1-(PYRIMIDIN-2-YL)PIPERIDIN-4-YL)METHANONE AND METHODS OF THEIR USE” (priority 2006, published 2008).

One data set deals with mice. Briefly: Learning and memory in mice after administration of the compound. The class given is in vivo. The note with it: administered to mice.
Data set [1] addresses T1, Na^+-dependent proline transporter (Homo sapiens, UniProt Q99884).
T1 sequence (Q99884 1-636): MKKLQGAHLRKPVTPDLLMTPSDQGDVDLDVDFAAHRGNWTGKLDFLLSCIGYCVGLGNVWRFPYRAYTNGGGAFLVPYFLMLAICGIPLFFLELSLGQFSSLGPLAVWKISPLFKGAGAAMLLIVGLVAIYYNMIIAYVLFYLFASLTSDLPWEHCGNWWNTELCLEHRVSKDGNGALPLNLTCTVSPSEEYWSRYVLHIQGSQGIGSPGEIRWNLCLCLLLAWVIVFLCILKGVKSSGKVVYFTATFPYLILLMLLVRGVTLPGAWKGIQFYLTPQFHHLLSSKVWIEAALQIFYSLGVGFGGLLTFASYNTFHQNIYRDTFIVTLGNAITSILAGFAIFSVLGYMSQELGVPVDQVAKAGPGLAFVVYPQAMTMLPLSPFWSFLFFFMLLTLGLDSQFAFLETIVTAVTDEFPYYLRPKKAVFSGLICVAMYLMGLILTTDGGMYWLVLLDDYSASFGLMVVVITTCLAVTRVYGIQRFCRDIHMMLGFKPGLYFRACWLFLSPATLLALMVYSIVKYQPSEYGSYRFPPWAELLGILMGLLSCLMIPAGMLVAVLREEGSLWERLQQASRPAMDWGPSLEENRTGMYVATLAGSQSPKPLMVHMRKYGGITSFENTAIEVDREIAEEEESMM
The note with it: statement in words, refers to U.S. patent application Ser. Nos. 11/433,057 and 11/433,626; cited from earlier work.

As to `O=C(c1ccc(-c2cccc(Cl)c2)cc1)C1CCN(c2ncccn2)CC1` [(3′-chlorobiphenyl-4-yl)(1-(pyrimidin-2-yl)piperidin-4-yl)methanone], the melting point is ~ 117 °C. Further, in the data set on mice, the “effect on learning and memory” value was “increase learning and memory”. Further, the “inhibition of the Na+-dependent proline transporter” value in data set [1] is listed as “inhibitor”.
